# Reference: patent US6743917B2, “Camptothecin analogs and methods of preparation thereof” (University of Pittsburgh, priority 1993, dated 2004)
# Where two headings read alike, the source gives them in different places.
# Experiments:
# in vitro = conditions: human
# Protocol: (§1) Kinetics of Lactone Ring Opening. The hydrolysis kinetics of camptothecins in the presence of different blood components were determined by a quantitative C18 reversed-phase high-performance liquid chromatography (HPLC) assay as described in the literature. […] The preparation of whole blood and fractionated blood samples was carried out as described previously. […] HSA stock solutions were prepared in PBS buffer with a final pH of 7.40±0.05. […] All other agents were reagent grade and were used without further purification. High purity water provided by a Milli-Q UV PLUS purification system (Bedford, Mass.) was utilized in all experiments.
# (§2) All experiments were carried out at physiological temperature.
# [1] = Equilibrium binding to DMPC small unilamellar vesicles (fluorescence anisotropy titration); conditions: for KDMPC overall association constant: PBS buffer at PH 7.4 and 37° C.
# [2] = system: glioma cells (U87, A172, SG388, T98G, LN-Z308); test: Inhibition of cell proliferation in glioma cell lines; assay type: cell-based; conditions: several lines of glioma cells (U87, A172, SG388, T98G, LN-Z308), read-out: median effective concentrations, inhibiting cell proliferation
# [3] = system: MDA-MB-435 tumorigenic metastatic human breast cancer cells; test: cells; assay type: cell-based; conditions: Homo sapiens, MDA-MB-435 cells, 72 hrs exposure
# Protocol: Cells. […] The cells were exposed to a range of drug concentrations for 72 hr exposure periods and then viability was assessed using a sulphorrhodamine B (SRB) assay. SRB assays were performed using a standard assay.
# Sulphorhodamine B (SRB) assay was used. This assay measures the total protein levels in the living cells. Proteins from dead cells are lysed and removed in the washing step before TCA fixation. However, it is possible that cells in the early stage of death still have their membrane integrity and therefore retain the protein contents inside. As a result, the optical density at 490 nm can sometimes be overestimated and the cytotoxicity underestimated. […] The SRB assay is now a well regarded assay and was recently approved by NCI as a standard assay for anticancer drug screening.
# [4] = Kinetics of lactone ring opening in PBS buffer (HPLC); assay type: physicochemical; conditions: for % Lactone at Equilibrium: PBS
# Protocol: Kinetics of Lactone Ring Opening. […] Mi and Burke (1994), supra.
# FIG. 21 summarizes the stability of DB172 in phosphate buffered saline (PBS) buffer, pH 7.4, at physiological temperature. Shown in the figure are plots of lactone fraction as a function of time for DB172 at different concentrations. Drug was added to solution from a concentrated DMSO stock solution such that the volumes of DMSO were very small (less than 0.5%) relative to the volume of water. […] At the more dilute drug concentrations the drug hydrolyzes as previously observed for other camptothecins containing the ^α-hydroxy-^δ-lactone moiety.
# [5] = Equilibrium binding to DMPG small unilamellar vesicles (fluorescence anisotropy titration); conditions: for KDMPG overall association constant: PBS buffer at PH 7.4 and 37° C.
# [6] = Kinetics of lactone ring opening in PBS containing HSA (HPLC); conditions: HSA (PBS containing 30 mg/ml HSA)
# Protocol: as §1, §2
# [7] = Kinetics of lactone ring opening in RBC (HPLC); assay type: in vitro ADME, human; conditions: RBC
# Description: Kinetics of Lactone Ring Opening. […] Mi and Burke (1994), supra. […] Louis, Mo.) was used.
# [8] = Blood levels of DB-67 after intrastomach dosing; assay type: in vivo; conditions: 5 mg/kg intrastomach injection in DMSO; samples at 30 min, 1 hr, 2 hr, 4 hr
# Protocol: To evaluate the blood levels achieved following dosing at 5 mg/kg, four animals were given 0.1 ml intrastomach injections of DB-67 dissolved in DMSO. The stock contained DB67 at a concentration of 1.6 mg/ml. At time points of 30 min, 1 hr, 2 hr, and 4 hr, 1 ml samples of blood were drawn and collected by heart puncturing. The samples were centrifuged for 3 min and stored frozen until analysis was carried out.
# [9] = Kinetics of lactone ring opening in whole human blood (HPLC); conditions: Whole Blood, physiological temperature;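 further: hydrolytic opening of the camptothecin lactone ring followed over time by quantitative C18 reversed-phase HPLC in human whole blood at physiological temperature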
# Protocol: as §1, §2
# [10] = Self-association in aqueous solution (fluorescence intensity with time); assay type: physicochemical; conditions: lactone drug forms added to solution, time=0
# Protocol: FIG. 22 summarizes the dependence of the fluorescence intensity of DB172 as a function of time and pH. In these experiments DB172 is added to solution as the lactone form. At low pH where the drug remains in the lactone form, the change in intensity with time is the lowest. At pH 10, where the conditions are such that the lactone more readily hydrolyzes and forms carboxylate, a significant change in fluorescence intensity is observed. It appears that a pH 10 nonfluorescent micellular aggregates composed of lactone disassemble and form open-ring carboxylate forms that tend to exist in solution as monomeric fluorescent species.
# FIG. 23 explores the fluorescence intensity of DB172 as a function of concentration. Following the addition of low concentration of lactone drug to solution, the change in fluorescence signal is the greatest whereas at high drug concentration (10 ^μM) the fluorescence intensity changes are minimal. It is believed that a low concentration the micellular aggregates of DB172 displaying reduced fluorescence can disassemble and form fluorescent carboxylate species, but at higher drug concentration the equilibrium favors that the agent remains in the aggregated or reduced fluorescence state. […] Once again this decrease in fluorescence that occurs at reduced pH appear to be due to the formation of lactone aggregates of reduced fluorescence quantum yield.
# FIGS. 21 through 24 are consistent with the unusual ability of DB172 lactone to self-associate and form micelles at micromolar drug concentrations. The micellular DB172 aggregates display a reduced fluorescence. If conditions allow for hydrolysis to occur such that carboxylate forms, there is an increase in the fluorescence intensity of the sample. FIG. 25 compares the relative change in the fluorescence emission of a sample following addition of lactone drug forms to solution. In these experiments the values for each drug are normalized to a value of 1 at time equals to zero, and the ability of the various analogs to disassociate in the event the drugs are aggregated at time=0 is monitored with time. […]
# [11] = absence of HSA, read-out: IC50 (w/o HSA)
smiles,measurement,setting,value
"CC[C@@]1(O)C(=O)OCc2c1cc1n(c2=O)Cc2c-1nc1ccc(O)cc1c2CC[Si](C)(C)C [DB-174, (20S)-10-Hydroxy-7-[(2-trimethylsilyl)ethyl]camptothecin]",half-life,in vitro; blood,40.3 min
same,KDMPC overall association constant,[1],9000 M⁻¹
same,"K value for DMPC, fold greater than camptothecin",[1]; relative to camptothecin,~90 fold
same,EC50,[2],0.01 to 0.1 µg/mL
same,IC50,[3]; [11],12 nM
same,% Lactone at Equilibrium,[4],13.7 +/− 0.7%
same,half-life,"[4]; buffer, pH 7.4",29.7 min
same,KDMPG overall association constant,[5],6600 M⁻¹
"CC[C@@]1(O)C(=O)OCc2c1cc1n(c2=O)Cc2c-1nc1ccc(O)cc1c2[Si](C)(C)C(C)(C)C [DB-67, (20S)10-Hydroxy-7-tert-butyldimethylsilylcamptothecin]",half-life,in vitro; whole blood,130 min
same,KDMPC overall association constant,[1],2700 M⁻¹
same,"K value for DMPC, fold greater than camptothecin",[1]; relative to camptothecin,27 fold
same,times more lipophilic than camptothecin,[1]; relative to camptothecin,25 times
same,% Lactone at Equilibrium,[6],10.5 +/− 2.0%
same,t1/2,[6],119.0 ± 5.3 min
same,IC50,[3]; [11],7 nM
same,IC50,"[3]; presence of 1 mg/ml HSA, read-out: IC50 (w/HSA)",22 nM
same,% Lactone at Equilibrium,[4],10.2 +/− 0.3%
same,% Lactone at Equilibrium,[7],41.4 +/− 0.7%
same,t1/2,[7],51.4 ± 0.5 min
same,DB67 levels in blood after oral dosage,[8],> 40 ng/mL
same,KDMPG overall association constant,[5],2800 M⁻¹
same,"K value for DMPG, fold greater than camptothecin",[5]; relative to camptothecin,28 fold
same,% Lactone at Equilibrium,[9],30%
same,t1/2,[9],133.0 ± 15.9 min
same,% Lactone at Equilibrium,[9]; listed as DB 67,30.5 +/− 1.9%
same,self-association / aggregation state in solution,[10],much more likely to be found in solution as monomeric drug relative to DB172
